Assay: RP, Waters ACQUITY UPLC HSS T3, 0.1 mL/min; A: water + 0.01% formic acid; B: acetonitrile + 0.01% formic acid; gradient (min/%B) 0/10 38/45 45/45 55/0 60/0
Settings: stereoisomer not certain

In order of falling LC retention time:
1. Oc1cc(Cl)ccc1Oc1ccc(Cl)cc1Cl [Triclosan]  43.8 min
2. O=C(Nc1ccccc1)N(Cc1ccc(Cl)cc1)C1CCCC1 [Pencycuron]  43.7 min
3. COC(=O)N(OC)c1ccccc1COc1ccn(-c2ccc(Cl)cc2)n1 [Pyraclostrobine]  43.5 min
4. CC(=O)C1CCC2C3CCC4=CC(=O)CCC4(C)C3CCC12C (configuration not stated) [Progesterone]  42.1 min
5. CC(=O)C1CCC2C3CC=C4CC(O)CCC4(C)C3CCC12C (configuration not stated) [Pregnenolone]  41.8 min
6. CCCC1COC(Cn2cncn2)(c2ccc(Cl)cc2Cl)O1 (configuration not stated) [Propiconazole]  41.7 min
7. CCCN(CCC)c1c([N+](=O)[O-])cc(S(N)(=O)=O)cc1[N+](=O)[O-] [Oryzalin]  41.2 min
8. COc1ccc(C(=O)c2ccccc2)c(O)c1 [Oxybenzone]  40.6 min
9. CC(C)(C)C(O)(CCc1ccc(Cl)cc1)Cn1cncn1 (configuration not stated) [Tebuconazole]  39.5 min
10. CC(C)N(Cc1ccccc1)C(=O)C(C)(C)C [Tebutame]  39 min
11. COC(=O)c1cccc(C)c1S(=O)(=O)NC(=O)Nc1nc(OCC(F)(F)F)nc(N(C)C)n1 [Triflusulfuron-methyl]  39 min
12. CCCN(CCOc1c(Cl)cc(Cl)cc1Cl)C(=O)n1ccnc1 [Prochloraz]  38.7 min
13. O=C(C=CC=Cc1ccc2c(c1)OCO2)N1CCCCC1 [Piperine]  36.4 min
14. COc1nc(NC(=O)NS(=O)(=O)c2ccccc2C(F)(F)F)nc(C(F)(F)F)n1 [Tritosulfuron]  35.9 min
15. C#CC(C)(C)NC(=O)c1cc(Cl)cc(Cl)c1 [Propyzamide]  35.6 min
16. COc1nc(C)nc(NC(=O)NS(=O)(=O)c2ccccc2CCC(F)(F)F)n1 [Prosulfuron]  34.5 min
17. CC(=O)C1(O)CCC2C3CCC4=CC(=O)CCC4(C)C3CCC21C (configuration not stated) [Progesterone-17-hydroxy]  33.9 min
18. CC1(C)CCC(=Cc2ccc(Cl)cc2)C1(O)Cn1cncn1 (configuration not stated) [Triticonazole]  33.8 min
19. CC(C)(C)C(O)C(Oc1ccc(Cl)cc1)n1cncn1 (configuration not stated) [Triadimenol]  31.6 min
20. CC(C)(C)C(O)C(Cc1ccc(Cl)cc1)n1cncn1 (configuration not stated) [Paclobutrazole]  31.5 min
21. CCNc1nc(Cl)nc(NC(C)(C)C)n1 [Terbuthylazine]  30.6 min
22. CC12CCC(=O)C=C1CCC1C2CCC2(C)C(O)CCC12 (configuration not stated) [Testosterone]  28.9 min
23. CCNc1nc(NC(C)(C)C)nc(SC)n1 [Terbutryne]  28 min
24. CCCCCC(O)C=CC1C(=O)CC(O)C1CC=CCCCC(=O)O (configuration not stated) [Prostaglandin D2]  27.6 min
25. CCc1cccc(C)c1N(C(=O)CCl)C(C)COC (configuration not stated) [Metolachlor]  26.7 min
26. CC1=NNC(=O)N(N=Cc2cccnc2)C1 [Pymetrozine]  26.7 min
27. CCCCCC(O)C=CC1C(O)CC(=O)C1CC=CCCCC(=O)O (configuration not stated) [Prostaglandin E2]  26.5 min
28. CCOC(=O)C1CC(=O)C(=C(O)C2CC2)C(=O)C1 (configuration not stated) [Trinexapac-ethyl]  26.5 min
29. CC(C)(C)C(=O)OCOC(=O)C1N2C(=O)C(N=CN3CCCCCC3)C2SC1(C)C (configuration not stated) [Pivmecillinam]  26.4 min
30. CC(C)N(C(=O)CCl)c1ccccc1 [Propachlore]  25.8 min
31. CCCCCC(O)C=CC1C(O)CC(O)C1CC=CCCCC(=O)O (configuration not stated) [Prostaglandin F2a]  25.6 min
32. O=C(O)COc1nc(Cl)c(Cl)cc1Cl [Triclopyr]  25 min
33. COc1cc(OC)n2nc(S(=O)(=O)Nc3c(Cl)ccc(C)c3Cl)nc2n1 [Metosulam]  24.8 min
34. CON(C)C(=O)Nc1ccc(Br)cc1 [Metobromuron]  24.5 min
35. CC1CCC2C(C)C3C(CC4C5CC=C6CC(O)CCC6(C)C5CCC43C)N2C1 (configuration not stated) [Solanidine]  24.5 min
36. CNC1CCC(c2ccc(Cl)c(Cl)c2)c2ccccc21 (configuration not stated) [Sertraline]  24.3 min
37. Cc1cc(C)nc(Nc2ccccc2)n1 [Pyrimethanil]  22.2 min
38. CCCOc1nn(C(=O)NS(=O)(=O)c2ccccc2C(=O)OC)c(=O)n1C [Propoxycarbazone]  22.1 min
39. CCCOC(=O)c1ccc(O)cc1 [Propylparaben]  22 min
40. O=C1Nc2ccc(Cl)cc2C(c2ccccc2)=NC1O (configuration not stated) [Oxazepam]  20.6 min
41. CCC(C)C(=O)OC1CC(O)C=C2C=CC(C)C(CCC(O)CC(O)CC(=O)O)C21 (configuration not stated) [Pravastatin]  20.5 min
42. COc1cc(OC)n2nc(NS(=O)(=O)c3c(C(F)(F)F)ccnc3OC)nc2n1 [Pyroxsulam]  20.3 min
43. COC(=O)c1ccccc1S(=O)(=O)NC(=O)Nc1nc(C)nc(OC)n1 [Metsulfuron-methyl]  19.4 min
44. CS(=O)(=O)c1ccc(C(=O)C2C(=O)CCCC2=O)c(Cl)c1 [Sulcotrione]  18.6 min
45. Fc1ccc(C2CCNCC2COc2ccc3c(c2)OCO3)cc1 (configuration not stated) [Paroxetine]  18.3 min
46. [O-][n+]1nc(-n2ccnc2)nc2ccc(Cl)cc21 [Triazoxide]  16 min
47. CSc1nnc(C(C)(C)C)c(=O)n1N [Metribuzine]  15.6 min
48. COc1cc(OC)nc(NC(=O)NS(=O)(=O)c2ncccc2C(=O)N(C)C)n1 [Nicosulfuron]  15.2 min
49. CCNc1nc(Cl)nc(NCC)n1 [Simazine]  14.5 min
50. N#CN=C1SCCN1Cc1ccc(Cl)nc1 [Thiacloprid]  12.2 min
51. COC(=O)c1ccc(O)cc1 [Methylparaben]  10 min
52. COc1ccc(C(CN(C)C)C2(O)CCCCC2)cc1 (configuration not stated) [Venlafaxine]  9.84 min
53. Cc1cnc2c(C(=O)O)c(Cl)ccc2c1 [Quinmerac]  8.87 min
54. O=C(O)c1ccccc1O [Salicylic acid]  8.4 min
55. CCNc1nc(NC(C)(C)C)[nH]c(=O)n1 [Tertbutylazine-2-hydroxy]  8.38 min
56. CN1COCN(Cc2cnc(Cl)s2)C1=N[N+](=O)[O-] [Thiamethoxam]  6.97 min
57. CCCOC(=O)NCCCN(C)C [Propamocarb]  5.59 min
58. NC(Cc1c[nH]c2ccccc12)C(=O)O (configuration not stated) [Tryptophan]  5.4 min
59. CC(=O)Nc1ccc(O)cc1 [Paracetamol]  4.98 min
60. CN1CCC23c4c5ccc(O)c4OC2C(O)C=CC3C1C5 (configuration not stated) [Morphine]  4.26 min
61. CN1CCCC1c1cccnc1 (configuration not stated) [Nicotine]  3.37 min
62. CN1CCCC1c1ccc[n+](C2OC(C(=O)[O-])C(O)C(O)C2O)c1 (configuration not stated) [Nicotine Glucuronide]  1.3 min

Source: the RepoRT retention time repository
